Results on ten compounds are retold here after US20160019374A1, “METHODS FOR ESTABLISHING COMBINATIONS OF KINASE INHIBITORS FOR THE TREATMENT OF MEDICAL CONDITIONS” (SALGOMED, INC., priority 2014, published 2016).

Assay [1] has as its system A549 (lung adenocarcinoma). Nature of the assay: Kinase inhibitor screen, selectivity = IMR-90 to A549 viability ratio (ATPlite 1 Step). Conditions: single drugs at 1000 nM, 72 hours, 244 KIs screened, FIG. 2. (In general: Cellular ATP, detected with luciferase, serves as a proxy for viable cell number.)
Description: Cell lines IMR-90 (normal lung fibroblast) and A549 (lung adenocarcinoma) were cultured in RPMI 1640 (Hyclone) supplemented with 10% Canadian characterized fetal bovine serum (Hyclone), 1% 200 mM L-glutamine (Omega), and 1% penicillin/streptomycin (Omega). The media for the cells were renewed every 3 days and kept at 80-90% confluency. Cells were maintained in a humidified environment at 37° C. and 5% CO2.
IMR-90 (1500 cells/well) and A549 (750 cells/well) were seeded on 384-well microplates (Grenier Bio-One) and incubated for 3 hours before the addition of kinase inhibitor(s). The reason that IMR-90 was seeded at double the cell density of A549 is due to the difference in cell division. IMR-90's doubling time is 36-48 hours whereas A549's is 22 hours. […] Furthermore, both A549's and IMR-90's final confluency at 72 hrs is 90-95% and within the range of the ATPlite 1 step assay. ECHO 555 Liquid Handler (Labcyte) was used to dispense nanoliter volumes of each KI to 384-well plates with cells attached (wet dispense). The final volume in the plate is 40 uL and cells were incubated for 72 hours with KI treatment.
ATPlite 1 Step (Perkin Elmer) was used to evaluate the cell number and cytotoxicity. ATP measurements were done by dispensing 20 uL of the ATPlite 1 Step solution to each well to a final volume of 60 uL. The plate was placed on a shaker at 1100 rpm and the luminescence activity was detected by Analyst GT Plate Reader. The percent (%) of control is the quantity of ATPlite 1 step measurement of the treated versus the untreated wells of each individual cell type.
The 244 kinase inhibitors (KIs) of the EMD drug library were screened at 1000 nM individually and the treatment lasted for 72 hours.
where vN indicates the viability of normal cells (IMR90) after treatment, and vc the viability of cancer cells (A549) after treatment. […] For the other 243 KIs we used the standard dose of 1000 nM.
Assay [2] deals with primary myoblasts. Briefly: Protection of primary myoblasts against 0.1% hypoxia (viability screen). Type of assay: cell-based. The conditions noted are these: single-drug screening of EMD library. An excerpt:
We used our method to predict synergistic effects between four kinase inhibitors: G13, O20, I15, and K10. […] Out of 244 drugs from the EMD library of kinase inhibitors, we first selected 58 drugs that have a positive effect on cell survivability against hypoxia. Single-drug screening results with these drugs were used as a training set to build a regression model that uses the kinase catalytic activity as predictor of the viability. The model assumed a dependence of the viability Vii of the form of Equation (V)

Consider `O=C1c2ccccc2-c2nc3nnnn3nc21` [A15, PDK1/Akt1/Flt3 Dual Pathway Inhibitor], for which the “selectivity rank in primary screen (IMR-90 to A549 viability ratio)” value is reported as “top ten most selective” in assay [1] and “top hit” in assay [1] (listed as PDK1/Akt1/Flt3 Dual Pathway Inhibitor).

Regarding `Nc1nc(Nc2ccc(S(N)(=O)=O)cc2)nn1C(=S)Nc1c(F)cccc1F` [C16, Cdk1/2 In. III], the “selectivity rank in primary screen (IMR-90 to A549 viability ratio)” value in assay [1] is on record as “top ten most selective”.

Turning to `NS(=O)(=O)c1ccc(N=Nc2c(O)[nH]c3ccc(Br)cc23)cc1` [D07, Cdk2 In. II], in assay [1], the “selectivity rank in primary screen (IMR-90 to A549 viability ratio)” value is reported as “top ten most selective”.

Turning to `CC(C)c1nn(-c2c(Cl)cccc2Cl)c2nc(Cc3ccc(OCCO)cc3)[nH]c(=O)c12` [E20, Cdk/Crk In.], the “selectivity rank in primary screen (IMR-90 to A549 viability ratio)” value in assay [1] is on record as “top ten most selective”.

As for `O=C1c2ccccc2-[n+]2ccc3c([nH]c4ccccc43)c21` [G10, Fascaplysin, Synthetic], the “selectivity rank in primary screen (IMR-90 to A549 viability ratio)” value in assay [1] was “top ten most selective”.

For `Cc1cc(I)ccc1Nc1c(C(=O)NOCC2CC2)cc(F)c(F)c1F` [H15, MEK1/2 In. II], the “selectivity rank in primary screen (IMR-90 to A549 viability ratio)” value in assay [1] was “top ten most selective”.

As for `Cc1ccc([N+](=O)[O-])cc1S(=O)(=O)N(C)/N=C/c1cnc2ccc(Br)cn12.Cl` [L13, PI 3-Kα In. VIII], the “selectivity rank in primary screen (IMR-90 to A549 viability ratio)” value in assay [1] is listed as “top ten most selective”.

`Nc1cccc(-c2cc3c(Oc4cccc(O)c4)ncnc3[nH]2)c1` [M16, GSK3b In. XII, TWS119]: in assay [1], the “selectivity rank in primary screen (IMR-90 to A549 viability ratio)” value is recorded as “top ten most selective”.

Turning to `c1nc2nc(Nc3ccc(N4CCOCC4)cc3)nc(NC3CCCCC3)c2[nH]1` [N05, Reversine], in assay [1], the “selectivity rank in primary screen (IMR-90 to A549 viability ratio)” value is recorded as “top ten most selective”.

For the compound `COc1ccc2c(c1)/C(=C/c1cnc[nH]1)C(=O)N2` [O20, SU9516], in assay [2], the “protection of primary myoblasts against hypoxia” value was “protect primary myoblasts against 0.1% hypoxia”. In addition, the “selectivity rank in primary screen (IMR-90 to A549 viability ratio)” value in assay [1] is reported as “top ten most selective”.
